Experimental findings from article PMC10246881 (2023) are described below.

Experiment [1] relates to (poly[dA-dT])2 (DNA, polymer) AT. In words: intrinsic fluorescence titration. The settings on record: 100 mM NaCl; 50 mM Tris-HCl, 0.1 mM EDTA, pH 7.4; 2 μM ridinilazole, polymer titrated.
The subject of experiment [2] is poly(dA)·poly(dT) (DNA, polymer) A/T. The experiment is described as follows: intrinsic fluorescence titration. The settings on record: 100 mM NaCl; 50 mM Tris-HCl, 0.1 mM EDTA, pH 7.4; 2 μM ridinilazole, polymer titrated.
In experiment [3] the test system is (poly[dG-dC])2 (DNA, polymer) GC. In words: intrinsic fluorescence titration. The settings on record: 100 mM NaCl; 50 mM Tris-HCl, 0.1 mM EDTA, pH 7.4; 2 μM ridinilazole, polymer titrated.
Experiment [4] has as its system dsOligo 1 (CGCGAATTCGCG) (DNA, duplex) CGCGAATTCGCG
In words: X-ray crystallography (2.2 Å). The settings on record: minor groove at AATT; mixed 1:1, 4% DMSO; crystals at 14 °C.

Experiment [5] shares this test system. The experiment is described as follows: intrinsic fluorescence titration, tight-binding linear fit. The settings on record: 100 mM NaCl; 50 mM Tris-HCl, 0.1 mM EDTA, pH 7.4; oligo titrated into fixed ridinilazole.
Experiment [6] has as its system dsOligo 2 (CGCAAATTTGCG) (DNA, duplex) CGCAAATTTGCG
The experiment is described as above. The settings on record: 100 mM NaCl; 50 mM Tris-HCl, 0.1 mM EDTA, pH 7.4; oligo titrated into fixed ridinilazole.

A word on the Kd: it is the constant that tells how readily two partners part at equilibrium. The low end stands for tighter binding, the high end for weaker binding. In the case of `c1cc(-c2nc3cc(-c4ccc5nc(-c6ccncc6)[nH]c5c4)ccc3[nH]2)ccn1`, the binding entry in experiment [1] was “yes”; in experiment [2], “yes”; in experiment [3], “no”; in experiment [4], “yes”. In addition, the Kd was 21.6 nM in experiment [5] and 21.3 nM in experiment [6].
